Measurements: patent publication US10703756B2, “Pyrrolo[2,3-D]pyrimidinyl, pyrrolo[2,3-B]pyrazinyl, pyrrolo[2,3-B]pyridinyl acrylamides and epoxides thereof” (Pfizer Inc., priority 2015, dated 2020)

Legend:
[1] = tested on: IL-15 induced P-STAT5 in human PBMC; test: PBMC IL-15 Induced P-STAT5; format: cell-based; settings: human PBMC, IL-15 final 41 ng/mL; read-out: PBMC IL15_pSTAT5_IC50
Summary of the method: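 Thawed human PBMC, rested in human plasma, were preincubated 15 min at 37 °C with compound (0.2% DMSO), then stimulated 15 min with IL-15 at 41 ng/mL final. After paraformaldehyde fixation and methanol permeabilisation, Alexa Fluor 647 anti-STAT5 staining overnight at 4 °C was analysed by flow cytometry on total lymphocytes.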

[2] = Stability of JAK3 Covalent Inhibitors in Human Whole Blood; format: in vitro ADME; settings: 1 μM test compound, 37° C., 180 min incubation; for half-life at 1 μM: both sexes, read-out: Human blood stability t1/2
Description: Stability of JAK3 Covalent Inhibitors in Rat and Human Whole Blood
Rat blood was collected from 3 male Sprague-Dawley rats (200-250 g, Charles River Laboratories) and pooled for each study. Human blood was collected from healthy subjects at the Occupational Health & Wellness Center at Pfizer, Groton, Conn. and pooled for each study. Both rat and human blood was collected freshly into K2-EDTA tubes and kept on ice. An aliquot of the blood was transferred to microtubes and pre-warmed for 10 min at 37° C. using a heat block. The test compound was then added (1 μM final concentration) and the incubation was continued for 180 min at 37° C. in duplicates. An aliquot of the incubation mixture was removed at designated time points during the course of the incubation, mixed with an aliquot of acetonitrile containing an internal standard, vortexed and centrifuged. The resulting supernatants were removed and subjected to LC-MS/MS analyses to determine parent compound concentrations. Peak area ratios of the parent compound vs the internal standard were used to determine the % of parent compound remaining vs incubation time.

[3] = biological target: T1, JAK3 enzyme (Homo sapiens, UniProt P52333); test: JAK Caliper Enzyme Assay at 4 μM ATP; format: biochemical
T1 sequence (P52333 1-1124): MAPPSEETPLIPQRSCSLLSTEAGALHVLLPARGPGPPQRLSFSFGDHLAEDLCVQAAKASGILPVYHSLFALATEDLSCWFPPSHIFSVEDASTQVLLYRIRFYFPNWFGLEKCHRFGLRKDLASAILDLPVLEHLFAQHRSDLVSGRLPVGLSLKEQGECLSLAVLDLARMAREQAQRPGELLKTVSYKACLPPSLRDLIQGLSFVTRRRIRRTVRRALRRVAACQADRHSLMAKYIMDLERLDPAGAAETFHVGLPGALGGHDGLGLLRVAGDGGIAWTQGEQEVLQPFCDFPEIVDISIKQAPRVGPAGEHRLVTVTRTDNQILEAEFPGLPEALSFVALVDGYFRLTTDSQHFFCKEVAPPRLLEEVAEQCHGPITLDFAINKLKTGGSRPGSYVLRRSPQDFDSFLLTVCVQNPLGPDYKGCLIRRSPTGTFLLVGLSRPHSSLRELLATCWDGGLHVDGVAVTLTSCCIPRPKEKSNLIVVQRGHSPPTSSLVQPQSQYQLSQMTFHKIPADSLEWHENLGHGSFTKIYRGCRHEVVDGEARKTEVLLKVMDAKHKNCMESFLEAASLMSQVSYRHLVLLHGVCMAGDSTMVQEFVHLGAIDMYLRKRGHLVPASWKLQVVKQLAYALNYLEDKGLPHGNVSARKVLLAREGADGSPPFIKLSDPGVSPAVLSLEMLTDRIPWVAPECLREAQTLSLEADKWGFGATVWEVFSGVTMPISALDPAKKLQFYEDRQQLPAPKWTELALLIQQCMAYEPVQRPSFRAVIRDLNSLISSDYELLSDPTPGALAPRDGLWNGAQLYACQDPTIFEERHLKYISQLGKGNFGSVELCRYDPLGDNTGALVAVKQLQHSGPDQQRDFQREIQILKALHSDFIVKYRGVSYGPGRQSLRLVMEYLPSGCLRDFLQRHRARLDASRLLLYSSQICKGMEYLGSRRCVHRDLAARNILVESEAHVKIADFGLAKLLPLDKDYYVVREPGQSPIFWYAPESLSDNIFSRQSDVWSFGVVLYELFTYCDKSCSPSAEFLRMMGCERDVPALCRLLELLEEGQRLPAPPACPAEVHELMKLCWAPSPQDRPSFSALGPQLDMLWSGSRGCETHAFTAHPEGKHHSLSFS
Summary of the method: (§1)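 First, compound stocks in DMSO were serially diluted half-log over 11 points, starting at 600 μM. Next, reactions ran with batch-optimized enzyme and timing targeting 20%-30% phosphorylation. Finally, wells were sampled and product separated from substrate peptide electrophoretically.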

[4] = biological target: T1, JAK3 enzyme; test: JAK Caliper Enzyme Assay at 1 mM ATP; format: biochemical
Summary of the method: as §1

| Structure (SMILES) | IC50 [1] | half-life at 1 μM [2] | IC50 [3] | IC50 [4] | Human blood stability t1/2 [2] |
| --- | --- | --- | --- | --- | --- |
| C=CC(=O)N1CCCC1COc1cnc2[nH]cc(C(=O)N[C@@H](C)COC)c2n1 (mixture of isomers) [Example 7, Racemic-2-[(1-acryloylpyrrolidin-2-yl)methoxyl]-N-[(2S)-1-methoxypropan-2-yl]-5H-pyrrolo[2,3-b]pyrazine-7-carboxamide] | 0.403 µM | 2.63 h | 0.00149 µM | 0.106 µM | – |
| C=CC(=O)N1CC[C@H](Nc2cnc3[nH]cc(C(=O)NCC)c3n2)[C@@H](O)C1 (racemic) [Example 31, Trans-racemic-2-{[(3S,4S)-1-acryloyl-3-hydroxypiperidin-4-yl]amino}-N-ethyl-5H-pyrrolo[2,3-b]pyrazine-7-carboxamide] | 3.87 µM | 4.9 h | 0.000211 µM | 0.047 µM | – |
| C=CC(=O)N1CCCC(Nc2cnc3[nH]cc(C(=O)NCC)c3n2)C1 (racemic) [Example 34, Racemic-2-[(1-acryloylpiperidin-3-yl)amino]-N-ethyl-5H-pyrrolo[2,3-b]pyrazine-7-carboxamide] | 0.58 µM | > 6 h | 0.000501 µM | 0.105 µM | – |
| C=CC(=O)N1CC[C@@H](Nc2cnc3[nH]cc(C(=O)NCC)c3n2)[C@H](C)C1 (racemic) [Example 43, Trans-racemic-2-{[(3R,4R)-1-acryloyl-3-methylpiperidin-4-yl]amino}-N-ethyl-5H-pyrrolo[2,3-b]pyrazine-7-carboxamide] | 0.411 µM | 3.73 h | 0.000258 µM | 0.05 µM | – |
| C=CC(=O)N1CCCC(Oc2cnc3[nH]cc(C(=O)N[C@@H](C)COC)c3n2)C1 (mixture of isomers) [Example 51, Racemic-2-[(1-acryloylpiperidin-3-yl)oxy]-N-[(2S)-1-methoxypropan-2-yl]-5H-pyrrolo[2,3-b]pyrazine-7-carboxamide] | 0.999 µM | 2.65 h | 0.00293 µM | 0.212 µM | – |
| C=CC(=O)N1C[C@@H](Nc2cnc3[nH]cc(C(=O)N[C@@H](C)COC)c3n2)CC[C@H]1C (racemic) [Example 65, Cis-racemic-2-{[1-acryloyl-6-methylpiperidin-3-yl]amino}-N-[(2S)-1-methoxypropan-2-yl]-5H-pyrrolo[2,3-b]pyrazine-7-carboxamide] | 0.585 µM | > 6 h | 0.00102 µM | 0.053 µM | – |
| C=CC(=O)N1C[C@@H](Nc2cnc3[nH]cc(C(=O)N[C@H](C)COC)c3n2)CC[C@H]1C (racemic) [Example 68, Cis-racemic-2-{[1-acryloyl-6-methylpiperidin-3-yl]amino}-N-[(2R)-1-methoxypropan-2-yl]-5H-pyrrolo[2,3-b]pyrazine-7-carboxamide] | 4.57 µM | > 6 h | 0.00217 µM | 0.247 µM | – |
| C=CC(=O)N1C[C@@H](Nc2cnc3[nH]cc(C(=O)NCC)c3n2)CC[C@H]1C (racemic) [Example 74, Cis-racemic-2-{[1-acryloyl-6-methylpiperidin-3-yl]amino}-N-ethyl-5H-pyrrolo[2,3-b]pyrazine-7-carboxamide] | 1.18 µM | > 6 h | 0.000995 µM | 0.177 µM | – |
| C=CC(=O)N1C[C@@H](Oc2cnc3[nH]cc(C(=O)N[C@@H](C)COC)c3n2)CC[C@H]1C (racemic) [Example 80, Cis-racemic-2-{[1-acryloyl-6-methylpiperidin-3-yl]oxy}-N-[(2S)-1-methoxypropan-2-yl]-5H-pyrrolo[2,3-b]pyrazine-7-carboxamide] | 0.829 µM | 4.8 h | 0.00132 µM | 0.16 µM | – |
| C=CC(=O)N1CC(Nc2ncnc3[nH]ccc23)CCC1[C@@H](C)O (mixture of isomers) [Example 109] | 0.32 µM | – | 0.000713 µM | 0.155 µM | 2.20175 h |
| C=CC(=O)N1CCN(c2cnc3[nH]cc(C(=O)NC(C)COC)c3n2)CC1(C)C (racemic) [Example 148, Racemic-2-(4-acryloyl-3,3-dimethylpiperazin-1-yl)-N-(1-methoxypropan-2-yl)-5H-pyrrolo[2,3-b]pyrazine-7-carboxamide] | 0.312 µM | > 6 h | 0.000773 µM | 0.111 µM | – |
| C=CC(=O)N1CC[C@H](Nc2cnc3[nH]cc(C(=O)N[C@@H](C)COC)c3n2)C[C@@H]1C (racemic) [Example 353, 2-(((2S,4S)-1-Acryloyl-2-methylpiperidin-4-yl)amino)-N—((S)-1-methoxypropan-2-yl)-5H-pyrrolo[2,3-b]pyrazine-7-carboxamide] | 2.2 µM | > 6 h | 0.00148 µM | 0.123 µM | – |
| C=CC(=O)N1CCC[C@@H](Oc2cnc3[nH]cc(C(=O)N[C@@H](C)COC)c3n2)C1 [Example 49, 2-{[(3R)-1-acryloylpiperidin-3-yl]oxy}-N-[(2S)-1-methoxypropan-2-yl]-5H-pyrrolo[2,3-b]pyrazine-7-carboxamide] | – | 3.27 h | 0.0271 µM | 2.1 µM | – |
| C=CC(=O)N(C)C1CN(c2cnc3[nH]cc(C(=O)N[C@@H](C)COC)c3n2)C1 [Example 85, 2-{3-[acryloyl(methyl)amino]azetidin-1-yl}-N-[(2S)-1-methoxypropan-2-yl]-5H-pyrrolo[2,3-b]pyrazine-7-carboxamide] | – | 1.38 h | 0.00291 µM | 0.467 µM | – |
| C=CC(=O)N1CCC(Oc2cnc3[nH]cc(-c4n[nH]c(C)n4)c3n2)CC1 [Example 115, 1-(4-{[7-(5-Methyl-1H-1,2,4-triazol-3-yl)-5H-pyrrolo[2,3-b]pyrazin-2-yl]oxy}piperidin-1-yl)prop-2-en-1-one] | – | 3.77 h | 0.00831 µM | 0.929 µM | – |
| C=CC(=O)N1CCC(Oc2cnc3[nH]cc(-c4nnc[nH]4)c3n2)CC1 [Example 120, 1-(4-{[7-(4H-1,2,4-Triazol-3-yl)-5H-pyrrolo[2,3-b]pyrazin-2-yl]oxy}piperidin-1-yl)prop-2-en-1-one] | – | > 6 h | 0.00448 µM | 0.725 µM | – |
| C=CC(=O)N1CCC(Oc2cnc3[nH]cc(-c4ncnn4CC)c3n2)CC1 [Example 121, 1-(4-((7-(1-ethyl-1H-1,2,4-triazol-5-yl)-5H-pyrrolo[2,3-b]pyrazin-2-yl)oxy)piperidin-1-yl)prop-2-en-1-one] | – | 2.67 h | 0.00696 µM | 0.921 µM | – |
| C=CC(=O)N1CCC(Oc2cnc3[nH]cc(-c4nnco4)c3n2)CC1 [Example 128, 1-(4-{[7-(1,3,4-Oxadiazol-2-yl)-5H-pyrrolo[2,3-b]pyrazin-2-yl]oxy}piperidin-1-yl)propan-2-en-1-one] | – | > 6 h | 0.00667 µM | 0.787 µM | – |
| C=CC(=O)N1CCC(Nc2cnc3[nH]cc(C(=O)NCCC)c3n2)CC1 [Example 170, 2-[(1-acryloylpiperidin-4-yl)amino]-N-propyl-5H-pyrrolo[2,3-b]pyrazine-7-carboxamide] | – | 5.13 h | 0.000508 µM | 0.004 µM | – |
